# Entries after “also recorded” stand apart in the source; their conditions may differ.
# Key:
# Mouse P338D cells = test: Release of 3H-arachidonic acid metabolites, A23187-stimulated cells (Experiment 9); type: cell-based; details: 10^-6 M/L sorbinil; stimulated by A23187
# From the text: The assay protocol was as described generally in Henderson, W. R., and S. J. Klebanoff, J. Biol. Chem. 258: 13522-13527, 1983, which is hereby incorporated by reference.
# [1] = tested on: Human polymorphonuclear leukocytes (PMNs); test: LTB4 release by polymorphonuclear leukocytes (Experiment 10); type: cell-based; details: normal human PMNs
# From the text: Human polymorphonuclear leukocytes (PMNs) were used to study LTB4 release, which is known to be involved in inflammation.
# Human monocytes = test: Monocyte adherence in vitro (Experiment 16); type: cell-based; details: concentrations as high as 10^-6 M/L
# From the text: Human monocytes were isolated and tested for adherence in vitro in the presence and absence of sorbinil.
# white cells = details: in vivo
# [2] = tested on: delayed-type hypersensitivity (DTH); test: DTH ear swelling, comparison of sorbinil, tolrestat, WF-3681 and NSAIDs (Experiment 23, TABLE 5); type: in vivo, mice
# Procedure: (§1) Delayed type hypersensitivity, which involves the participation of T lymphocytes and macrophages, can be studied in vivo by exposing (or priming) a mammal to a novel antigen and then reexposing (or challenging) the primed animal to the same antigen four to seven days later. The classic DTH response includes symptoms of inflammatory response, induration and erythema, which peak at 24 to 48 hours after challenging and then decline slowly.
# (§2) Eight-week old female C57BL/6J mice (Jackson Labs) were divided into primed and unprimed groups. The five mice in the primed group were primed to 2,4-dinitrofluorobenzene (DNFB; Sigma Chemical Co., Grade 1, approx. 98%, Lot 129C-0065, No. d-6879) by painting their shaved ventral skins with 0.1 ml of 0.5% DNFB in ethanol:acetone (3:1). The five mice in the unprimed group were shaved and topically painted on their ventral skins with the ethanol:acetone (3:1) vehicle alone. The mice in both groups were challenged with DNFB four days later. A suitable patch of skin, the ear, was chosen for challenging. One ear was designated for challenging and the other to serve as a control. The thickness of each ear across the pinna was measured using micrometer calipers. The first measurements were taken four days after priming and are plotted as day 0 in FIG. 13. Next, each mouse was subjected to the following challenge regimen: one ear was challenged with one drop of 0.35% DNFB in olive oil, and the other (unchallenged control) ear was exposed to olive oil alone. The ear thicknesses (ET) of the challenged ear and the unchallenged ear were measured daily, and the swelling responses are plotted in FIG. 13 as: [formula]
# (§3) Three groups of eight-week old female C57BL/6J mice were primed to DNFB as previously described. […] Six hours later the first sets of ear measurements were taken, and one ear of each mouse was challenged.
# The Table has 4 columns, listing (left to right) each drug tested in column 1, drug concentrations in column 2, relative swelling in column 3, and effectiveness in column 4.
# [3] = tested on: anti-PHI.X 174 bacteriophage antibodies; test: Phage inhibition assay of serum antibody after immunization with bacteriophage PHI.X 174 (Experiment 7); type: in vivo, mice; details: sorbinil daily for five days
# From the text: Antibodies generated against the bacteriophage were quantitated by a phage inhibition assay, which is based on the observation that antibodies specific for the bacteriophage will inhibit the ability of the bacteriophage to lyse bacteria. Ochs, H. D., et al., Disorders of the B-cell system, in Immunologic Disorders in Infants and Children, E. R. Stiehm, et al., eds., W. B. Sanders, Co. Philadelphia, p. 239, 1980. The data was expressed as Kv values derived according to the following formula: Rate of phage inactivation, Kv D/T×1n Po/P, where D=reciprocal of antibody dilution, T=60 minutes, Po=initial number of PFU, and P=number of plaques at 60 minutes.
# Beginning with one week after this primary immunization mice were bled weekly, and serum samples from individual mice were tested for the ability to inhibit bacteriophage lysis of bacteria.
# [4] = tested on: delayed type hypersensitivity (DTH) response to DNFB; test: Delayed-type hypersensitivity (DTH) ear swelling, DNFB-primed mice (Experiments 2-3); type: in vivo, C57BL/6J mice
# Procedure: as §1, §2, §3
# The data in FIG. 15 is derived from three experiments using C57BL/6J mice. The measurements were taken at the time of maximal swelling, i.e., […] after challenge, and each point represents at least 9 mice.
# DTH reaction in ears = test: Histologic examination of DNFB-challenged ear tissue (Experiment 5); type: in vivo, mice
# Procedure: FIG. 16 depicts the ear of a primed mouse which has not been challenged with DNFB. The epidermis 22 is devoid of mononuclear infiltrate 28, as is the dermal compartment 24. A layer of cartilage 26 is located in the center of the ear. FIG. 17 represents the ear of a buffer-treated primed mouse which had been challenged 24 hours previously with DNFB. Note the pronounced edema in the dermal compartment of the skin 24 as well as the extensive mononuclear cell infiltrate (indicated by arrows 28) in both the dermis and epidermis. […] There were also fewer mononuclear cells 28 in the epidermis 22 as well.
# [5] = tested on: ear swelling produced by topical application of arachidonic acid; test: Ear swelling produced by topical arachidonic acid (Experiment 22); type: in vivo, mice
# [6] = tested on: ear swelling in response to PMA; test: Ear swelling in response to PMA (Experiment 21); details: in vivo
# [7] = tested on: spleen cells from irradiated C57B6 mice with thymocytes from Balb C mice; test: Mixed lymphocyte response (Experiment 19); type: cell-based; details: concentrations as high as 10^-5 M/L
# [8] = tested on: thymocytes from normal mice; test: Con A stimulated 3H-thymidine incorporation, thymocytes from normal mice in vitro (Experiment 18); type: cell-based; details: concentrations as high as 10^-5 M/L
# Human macrophages = test: 3H-thymidine incorporation, LPS-stimulated macrophages (Experiment 17); type: cell-based; details: concentrations as high as 10^-5 M/L
# Procedure: Human macrophages were stimulated using LPS in vitro, and ^3 H-thymidine incorporation was measured.
# Human mononuclear cells = test: PMA-stimulated superoxide production (Experiment 11); type: cell-based; details: concentrations as high as 10^-5 M/L; PMA stimulated normal cells
# From the text: Human mononuclear cells were studied for superoxide production in culture in the presence and absence of sorbinil. Superoxide production was stimulated in normal cells using the mitogen phorbol myristate acetate (PMA).
smiles,measurement,setting,value
"O=C1NC(=O)[C@@]2(CCOc3ccc(F)cc32)N1 [Sorbinil, 4(S)-2,3-dihydro-6-fluorospiro-(4H-1-benzopyran-4,4'-imidazolidine)-2',5'-dione]",Release of arachidonic acid metabolites,Mouse P338D cells,no effect
same,Production of LTB4,[1],no effect
same,Adherence of monocytes,Human monocytes,no effect
same,White cell population (differential blood count),white cells,did not affect the population of white cells
same,effectiveness (1 - R) (100%),"[2]; 6 μM, single dose after challenge",39%
same,effectiveness (1 - R) (100%),"[2]; 6 μM, single dose before challenge",32%
same,effectiveness (1 - R) (100%),[2]; concentration 6 μM,34%
same,effectiveness (1 - R) (100%),"[2]; concentration 6 μM, listed as sorbinil",about 30%
same,effectiveness (1 - R) (100%),[2]; concentration 10 μM,70%
same,Effect on DTH as measured by ear swelling (in words),"[2]; mouse, in vivo","strong and substantially identical inhibitory effect; also recorded: effective, as a single dose, when administered either before or after the antigenic challenge"
same,"Kv, rate of phage inactivation (serum titer of anti-PHI.X 174 antibodies)",[3]; one week after priming,5.0±2.4
same,"Kv, rate of phage inactivation (serum titer of anti-PHI.X 174 antibodies)",[3]; two weeks after primary immunization,18.4±11.4
same,ED100,"[4]; Mus musculus, extrapolation from least squares fit line, FIG. 15, three experiments, time of maximal swelling, i.e., 2 hours after challenge, read-out: Concentration at which maximum inhibition of DTH response (no swelling) would occur",13.5 mg/kg
same,Ear swelling (in words),[4]; sorbinil 10 mg/kg orally,almost complete inhibition of ear swelling
same,Ear swelling / DTH response (in words),"[4]; sorbinil orally 10, 1.0 or 0.1 mg/kg daily, DNFB-primed and challenged C57BL/6J mice",Swelling was inhibited; also recorded: dose dependent inhibition of ear swelling; also recorded: inhibits the inflammatory response; also recorded: dose dependent inhibition of the delayed-type hypersensitivity response
same,Edema of dermal compartment,"DTH reaction in ears; primed mouse challenged 24 hours previously with DNFB, vs buffer-treated",much less edematous
same,Mononuclear cell infiltration in challenged ears,DTH reaction in ears; sorbinil-treated vs challenged control mice,infiltration was reduced
same,Ear swelling produced by topical arachidonic acid,[5]; oral administration,no effect
same,Ear swelling produced by topical arachidonic acid,[5]; topical administration,no effect
same,Swelling of mouse ears in response to PMA,[6],no effect
same,Mixed lymphocyte response,[7],no effect
same,3H-thymidine incorporation stimulated by Con A,[8],no effect
same,Incorporation of 3H-thymidine,Human macrophages,no effect
same,Production of superoxide,Human mononuclear cells,no effect

# From US5340829A, “Immunoregulatory agents” (priority 1992, dated 1994)
